# Measurements as given in ChEMBL document CHEMBL1134869, “Discovery of potent, selective human granzyme B inhibitors that inhibit CTL mediated apoptosis” (Bioorg Med Chem Lett, 2002).
# Residues, ends and D or L forms follow the SMILES beside them.
# Legend:
# [1] = target: T1, Granzyme B (Homo sapiens, UniProt P10144); test: Compound was tested for its inhibition against human granzyme B; Not active
# [2] = target: T1, Granzyme B; test: Inhibition against human granzyme B
# [3] = Inhibition of CTL mediated apoptosis using humanNK-92 natural killer cells acting on target K-562 cells whose DNA had previously been labeled with [125I]-iododeoxyuridine; type: cell-based, Homo sapiens; details: k562
# [4] = target: T2, Caspase-3 (Homo sapiens) (UniProt P42574); test: Compound was tested for its inhibition against Caspase-3 at 50 uM; Not active
# T2 sequence (whole entry): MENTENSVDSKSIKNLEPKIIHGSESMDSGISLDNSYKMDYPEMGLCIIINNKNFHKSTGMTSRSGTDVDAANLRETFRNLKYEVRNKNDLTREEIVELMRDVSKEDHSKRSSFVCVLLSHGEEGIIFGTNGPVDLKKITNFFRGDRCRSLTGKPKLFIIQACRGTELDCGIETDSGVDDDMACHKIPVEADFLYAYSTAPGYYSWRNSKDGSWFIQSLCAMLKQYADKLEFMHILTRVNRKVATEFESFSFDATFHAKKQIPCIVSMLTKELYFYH
# T1 sequence (P10144 whole entry): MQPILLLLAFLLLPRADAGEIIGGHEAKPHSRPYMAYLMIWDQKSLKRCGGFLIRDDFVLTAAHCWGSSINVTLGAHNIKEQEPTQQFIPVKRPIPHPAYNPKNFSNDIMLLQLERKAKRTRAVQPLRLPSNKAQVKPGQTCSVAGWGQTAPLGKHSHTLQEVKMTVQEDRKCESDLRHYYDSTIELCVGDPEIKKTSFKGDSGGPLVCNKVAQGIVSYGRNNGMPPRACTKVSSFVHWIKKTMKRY
smiles,measurement,setting,value
CC[C@H](C)[C@@H](C(=O)N[C@H]1CCc2cccc3c2N(C1=O)[C@H](C(=O)NCc1cn[nH]c1)C3)N(C)C(C)=O,Ki,[1],Not Active
CC[C@H](C)[C@@H](C(=O)N[C@H]1CCc2cccc3c2N(C1=O)[C@H](C(=O)NCc1nc[nH]n1)C3)N(C)C(C)=O,Ki,[1],Not Active
CC[C@H](C)[C@H](NC(C)=O)C(=O)NCC(=O)N1CCC[C@H]1C(=O)N[C@H](C=O)CC(=O)O (Ac-IGPD-aldehyde),Ki,[2],270 nM
CC(C)[C@@H](C(=O)N[C@H]1CCc2cccc3c2N(C1=O)[C@H](C(=O)NCc1cn[nH]n1)C3)c1ccccn1,Ki,[3],30 nM
same,Ki,[2],75 nM
CC[C@H](C)[C@H](NC(=O)Cc1csc2ccccc12)C(=O)N[C@H]1CCc2cccc3c2N(C1=O)[C@H](C(=O)NCc1cn[nH]c1)C3,Ki,[3],3.1 nM
same,Ki,[2],7 nM
CC[C@H](C)[C@H](NC(C)=O)C(=O)NCC(=O)N1c2ccccc2C[C@H]1C(=O)N[C@H](C=O)CC(=O)O,Ki,[2],13 nM
CC[C@H](C)[C@@H](C(=O)N[C@H]1CCc2cccc3c2N(C1=O)[C@H](C(=O)NCCC(=O)O)C3)N(C)C(C)=O,Ki,[2],580 nM
same,inhibition,[4],< 50%
CC[C@H](C)[C@@H](C(=O)N[C@H]1CCc2cccc3c2N(C1=O)[C@H](C(=O)NCc1cc(=O)[nH]o1)C3)N(C)C(C)=O,Ki,[2],360 nM
CC[C@H](C)[C@@H](C(=O)N[C@H]1CCc2cccc3c2N(C1=O)[C@H](C(=O)N[C@@H](CC(=O)O)C(=O)c1nnc(-c2ccccc2)o1)C3)N(C)C(C)=O,Ki,[2],7 nM
CC[C@H](C)[C@H](NC(C)=O)C(=O)N[C@H]1CC[C@H]2CC[C@@H](C(=O)N[C@H](C=O)CC(=O)O)N2C1=O,Ki,[2],122 nM
CC[C@H](C)[C@H](NC(=O)Cc1ccccc1)C(=O)N[C@H]1CCc2cccc3c2N(C1=O)[C@H](C(=O)NCc1cn[nH]c1)C3,Ki,[3],6.3 nM
same,Ki,[2],13 nM
CC[C@H](C)[C@H](NC(C)=O)C(=O)Nc1cccn(CC(=O)N[C@H](C=O)CC(=O)O)c1=O,Ki,[2],133 nM
CC[C@H](C)[C@@H](C(=O)N[C@H]1CCc2cccc3c2N(C1=O)[C@H](C(=O)NCc1nnn[nH]1)C3)N(C)C(C)=O,Ki,[2],74 nM
CC[C@H](C)[C@@H](C(=O)N[C@H]1CCc2cccc3c2N(C1=O)[C@H](C(=O)N[C@@H](CC(=O)O)C(=O)c1nc2ccccc2s1)C3)N(C)C(C)=O,Ki,[2],85 nM
CC[C@H](C)[C@@H](C(=O)N[C@H]1CCc2cccc3c2N(C1=O)[C@H](C(=O)NCc1cc[nH]n1)C3)N(C)C(C)=O,Ki,[1],Not Active
CC[C@H](C)[C@@H](C(=O)N[C@H]1CCc2cccc3c2N(C1=O)[C@H](C(=O)N[C@@H](CC(=O)O)C(=O)C(=O)OC)C3)N(C)C(C)=O,Ki,[2],16 nM
CC[C@H](C)[C@@H](C(=O)N[C@H]1CCc2cccc3c2N(C1=O)[C@H](C(=O)NCc1cn[nH]n1)C3)N(C)C(C)=O,Ki,[3],30 nM
same,Ki,[2],38 nM
CC[C@H](C)[C@H](NC(C)=O)C(=O)N[C@@H](CCC(=O)O)C(=O)N1CCC[C@H]1C(=O)N[C@H](C=O)CC(=O)O (Ac-IEPD-aldehyde),Ki,[2],80 nM
CC[C@H](C)[C@@H](C(=O)N[C@H]1CCc2cccc3c2N(C1=O)[C@H](C(=O)N[C@@H](CC(=O)O)C(=O)CSCc1ccc(F)cc1)C3)N(C)C(C)=O,Ki,[2],2300 nM
